{"source": "patent US7846903B2", "about": "“Type II cubic liquid crystal composition” (National Institute of Advanced Industrial Science and …, priority 2004, dated 2010)", "key": {"[1]": {"details": "literature; cited from earlier work"}, "[2]": {"assay": "Formation and structure of cubic liquid crystals by polarizing microscopy (penetration method) and SAXS", "type": "physicochemical", "text": "Whether or not the amphiphilic lipid/water system forms cubic liquid crystals and whether or not such composition is type I or II can be easily determined by the penetration method. A small amount (several mg) of amphiphilic lipids is placed on a glass slide for a microscope, and slight pressure is applied with a glass cover to form a thin layer of amphiphilic lipids (diameter: about 1 to 5 mm) with a thickness of about 10 μm in the gap between the glass slide and the glass cover. Upon addition of water or an aqueous medium from a side of the gap between the glass slide and the glass cover by capillary action, water gradually invades the amphiphilic lipid thin layer from the exterior edge, and a water content gradient is formed from the amphiphilic lipid thin layer/water interface toward the inside of the amphiphilic lipid thin layer. Polarizing microscopic observation thereof enables the determination of a phase type formed depending on the concentration of the amphiphilic lipid/water system. […] In FIG. 2, 4 regions are observed. The rightmost region in the photograph indicates a water region, and the other regions indicate hydrous amphiphilic lipid regions. In the photograph, the rightmost regions indicates the highest water content and the leftmost region indicates a region of amphiphilic lipids that has not yet been penetrated by water. […] Since cubic liquid crystals are stably formed at the interface of excess water and the amphiphilic lipid portion, such crystals are found to be of type II.\nTo this end, whether or not the liquid crystal structure has cubic lattices may be investigated by the small-angle x-ray scattering (SAXS) assay. In this process, a sample of an amphiphilic lipid/water system at a given concentration may be introduced into a quartz X-ray capillary tube, the capillary may be sealed with an oxygen burner, and the resultant may be subjected to the SAXS assay.\nThe cubic liquid crystal composition of the present invention is not particularly limited. […] Thus, spaces and lattice constants can be easily determined. The peak values of small angle X-ray scattering or the cubic lattice size of cubic liquid crystals in the presence of an excess aqueous solvent are at constant levels regardless of the lipid concentration. The coexistence state of cubic liquid crystals and an excess aqueous medium can be confirmed by the SAXS assay. Thus, whether or not the cubic liquid crystals are of type II can be easily determined.\nIn equations, nL and nW are actually measurable, and ac can be measured by the SAXS experiment. Thus, the dhc value can be determined based on equations (ii) and (iii). […] Based on such comparison, whether or not the cubic liquid crystal structure is of a bicontinuous type can be determined.\nMono-O-(3,7,11,15-tetramethylhexadecyl)pentaerythritol (hereafter referred to as “mono-O-(phytanyl)pentaerythritol,” formula (5) above) and pure water were introduced into a mixing device, and incubation was carried out while performing 100 or more times of mixing operations at room temperature (23° C.) over the period of 48 hours. Thus, a homogeneously mixed sample of mono-O-(phytanyl)pentaerythritol/water system was obtained. This sample of mono-O-(phytanyl)pentaerythritol/water system appeared to be a transparent gel composition.\nSubsequently, the thus obtained sample of mono-O-(phytanyl)pentaerythritol/water system (the concentration of the amphiphilic compound: 74.6% by mass) was observed by polarizing microscopy. In entire region of the lipid portions, optically isotropic textures peculiar to the cubic liquid crystals were observed (FIG. 3). In FIG. 3, the right region indicates water and the left region indicates the sample of mono-O-(phytanyl)pentaerythritol/water system. […] Such observation indicates the formation of cubic liquid crystals.\nSubsequently, the sample of mono-O-(phytanyl)pentaerythritol/water system was confirmed to be a cubic liquid crystal by small-angle x-ray scattering (SAXS). […]"}, "[3]": {"assay": "Krafft temperature (TK) by DSC of amphiphilic compound/water system", "type": "physicochemical", "details": "for TK (Krafft temperature): compound/water system", "description": "Liquid crystals such as cubic liquid crystals formed by amphiphilic lipids are formed only at the Krafft temperature (TK), as determined depending on types and concentrations of amphiphilic lipids, or higher. Furthermore, liquid crystals generally undergo a phase transition upon changes in the concentration of the amphiphilic lipid or temperature. Accordingly, the maximal temperature (Tmax) at which a given liquid crystal structure can be stably present is also determined depending on lipid type and concentration of amphiphilic lipid. Thus, a liquid crystal structure formed by a given type of amphiphilic lipid is stably formed in the temperature range between TK and Tmax. The correlation between TK-Tmax and the concentration of the amphiphilic lipid is generally indicated as a “concentration-temperature dependent phase diagram” of the amphiphilic lipid/water system. The Krafft temperature of the amphiphilic lipid can be determined by a method known in the art, such as a method involving the preparation of such a phase diagram (e.g., Laughlin, R. G., “The Aqueous Phase Behavior of Surfactants,” 1994, Academic Press London, pp. 106-117). The Krafft temperature of a mixture of two or more amphiphilic lipids can be determined by the same method.\nIn the cubic liquid crystal composition of the present invention, stable bicontinuous type II cubic liquid crystals are formed at low temperatures, such as lower than 6° C. In the liquid crystal composition of the present invention, stable bicontinuous type II cubic liquid crystals are typically formed between −10° C. (or at the freezing temperature of the aqueous medium used or higher) and 80° C., and preferably between 0° C. and 50° C. The Krafft temperature of the amphiphilic lipid can be easily determined by, for example, DSC assay of an aqueous solution containing 1% to 85% by mass of amphiphilic lipid or by observing the melting behavior of the amphiphilic lipid under a (polarizing) microscope. More precisely, such temperature may be determined in accordance with a conventional technique involving the preparation of a phase diagram (e.g., Laughlin, R. G., “The Aqueous Phase Behavior of Surfactants,” 1994, Academic Press, London, pp. 106-117).\nThe Krafft temperatures of these amphiphilic compounds and mixtures thereof determined by the analyses described below are shown in Table 2-1 and Table 2-2.\nSubsequently, the sample of mono-O-(phytanyl)pentaerythritol/water system was subjected to differential scanning calorimetry (DSC) in a temperature range between −45° C. and 70° C. DSC analysis employed the Seiko SSC/560U differential scanning calorimeter (Seiko Instruments Inc.). The sample of mono-O-(phytanyl)pentaerythritol/water system (72.4% by mass) prepared by the above method was sealed in a DSC cell, and the sample was incubated while cooling at −45° C. for 3 hours to thoroughly form a hydrated solid of mono-O-(phytanyl)pentaerythritol (hereafter abbreviated as “hydrated solid”). Subsequently, this hydrated solid was heated at a rate of temperature increase of 0.5° C./minute and a melting behavior of the hydrated solid was inspected by DSC analysis. As a result, an endothermic peak resulting from melting of the hydrated solid that begins at around −40° C. and ends at around −27° C. and an endothermic peak resulting from ice melting observed between −10° C. and 1° C. were observed, as shown in FIG. 4. In FIG. 4, the left peak is the endothermic peak resulting from melting of the hydrated solid and the right peak is the endothermic peak resulting from ice melting. Although analysis was conducted up to 70° C., other thermal transition was not observed. Substantially the same results were obtained at other concentrations. Thus, the TK of mono-O-(phytanyl)pentaerythritol was concluded to be 0° C. or lower."}, "[4]": {"details": "lipid alone, total amphiphilic compound content 60% by mass (excess water)"}}, "data": [{"compound": "CCCC/C=C\\CCCCCCCC(=O)OCC(O)CO", "note": "(centres unmarked) [monomyristolein]", "values": [{"measurement": "Krafft temperature", "setting": "[1]", "value": 35, "unit": "°C"}]}, {"compound": "CC(C)CCCC(C)CCCC(C)CCCC(C)CCOC1OC[C@@H](O)C(O)C1O", "note": "(some centres unmarked) [formula (13), reference compound]", "values": [{"measurement": "Krafft temperature", "setting": "[1]", "value": 10, "unit": "°C"}, {"measurement": "maximal temperature at which the cubic liquid crystal structure is formed", "setting": "[2]", "value": 75, "unit": "°C"}, {"measurement": "diameter of the water channel of the cubic liquid crystals", "setting": "[2]; [4]", "value": 3.8, "unit": "nm"}, {"measurement": "lattice constant of the cubic liquid crystals", "setting": "[2]; [4]", "value": 9.2, "unit": "nm"}, {"measurement": "TK (Krafft temperature)", "setting": "[3]; listed as β-XP", "value": "about 10 °C"}]}, {"compound": "CCCCCC/C=C\\CCCCCCCCCC(=O)OC[C@H](O)CO", "note": "[monovaccenin]", "values": [{"measurement": "Krafft temperature", "setting": "[1]", "value": 15, "unit": "°C"}]}, {"compound": "CC(C)CCCC(C)CCCC(C)CCCC(C)(O)C(O)CO", "note": "(centres unmarked) [phytantriol, 3,7,11,15-tetramethylhexadecyl-1,2,3-triol]", "values": [{"measurement": "Temperature at which cubic liquid crystals are transformed into inverted hexagonal liquid crystals", "setting": "[1]", "value": "≥ 40", "unit": "°C"}]}, {"compound": "CCCCCCCCCCCCCCCCCC(=O)OCC(O)CO", "note": "(centres unmarked) [monooctadecanoin]", "values": [{"measurement": "Krafft temperature", "setting": "[1]", "value": 80, "unit": "°C"}]}, {"compound": "CCCCCCCC/C=C\\CCCCCCCC(=O)OCC(O)CO", "note": "(centres unmarked) [monoolein]", "values": [{"measurement": "Krafft temperature", "setting": "[1]", "value": 15, "unit": "°C"}]}, {"compound": "CC(C)CCCC(C)CCCC(C)CCCC(C)CCCC(=O)OC[C@H](O)[C@H]1OC(=O)C(O)=C1O", "note": "(stereo partly drawn) [formula (15), 6-O-(5,9,13,17-tetramethyloctadecanoyl)-L-ascorbic acid]", "values": [{"measurement": "lattice constant", "setting": "[2]; Ia3d, 69% by mass, 30° C.", "value": 17.4, "unit": "nm"}, {"measurement": "lattice constant", "setting": "[2]; Ia3d, 69% by mass, 40° C.", "value": 16.9, "unit": "nm"}, {"measurement": "lattice constant", "setting": "[2]; Ia3d, 69% by mass, 50° C.", "value": 17.0, "unit": "nm"}, {"measurement": "lattice constant", "setting": "[2]; Pn3m, 61% by mass, 1° C.", "value": 12.2, "unit": "nm"}, {"measurement": "lattice constant", "setting": "[2]; Pn3m, 61% by mass, 20° C.", "value": 12.2, "unit": "nm"}, {"measurement": "lattice constant", "setting": "[2]; Pn3m, 61% by mass, 30° C.", "value": 12.1, "unit": "nm"}, {"measurement": "lattice constant", "setting": "[2]; Pn3m, 61% by mass, 40° C.", "value": 11.4, "unit": "nm"}, {"measurement": "lattice constant", "setting": "[2]; Pn3m, 61% by mass, 50° C.", "value": 11.0, "unit": "nm"}, {"measurement": "lattice constant", "setting": "[2]; Pn3m, 61% by mass, 60° C.", "value": 10.1, "unit": "nm"}, {"measurement": "Temperature at which formation of cubic liquid crystals was observed (° C.)", "setting": "[2]; Table 13, 69% by mass, two-phase system of Pn3m and Ia3d cubic liquid crystals", "value": "20 (Two-phase system of Pn3m and Ia3d ° C."}, {"measurement": "Krafft temperature (° C.)", "setting": "[3]; amphiphilic compound alone", "value": "0 °C or lower"}, {"measurement": "TK (Krafft temperature)", "setting": "[3]", "value": "≤ 0", "unit": "°C"}]}, {"compound": "monopentadecenoin", "values": [{"measurement": "Krafft temperature", "setting": "[1]", "value": 30, "unit": "°C"}]}]}
